Experimental data: ChEMBL document CHEMBL1121621, “Synthesis and antiarrhythmic activity of alpha, alpha-bis[(dialkylamino)alkyl]phenylacetamides” (J Med Chem, 1980)

Legend:
[1] = test system: Canis familiaris; experiment: Antiarrhythmic activity was evaluated in mixed-breed or Beagle dogs after intravenous administration.; assay type: functional, Canis lupus familiaris, Heart
[2] = Therapeutic ratio in mixed-breed or Beagle dogs after intravenous administration of the compound.; assay type: ADME, Canis lupus familiaris; details: dog, in vivo, read-out: TR
[3] = test system: Canis familiaris; experiment: Minimum effective dose evaluated in mixed-breed or Beagle dogs after intravenous administration; assay type: functional; details: Canis lupus familiaris, read-out: MED
[4] = test system: Canis familiaris; experiment: Activity duration index was evaluated in mixed-breed or Beagle dogs after intravenous administration.; assay type: functional, Canis lupus familiaris
[5] = test system: Canis familiaris; experiment: Compound was evaluated for duration of action after oral administration at a dose 25 mg/kg to dog.; assay type: functional, Canis lupus familiaris
[6] = test system: Canis familiaris; experiment: Compound was evaluated for onset of action after oral administration at a dose 25 mg/kg to dog.; assay type: functional, Canis lupus familiaris
[7] = test system: Canis familiaris; experiment: Compound was evaluated for maximum reduction of ectopic beats after oral administration at a dose 25 mg/kg to dog.; assay type: functional, Canis lupus familiaris, Heart
[8] = test system: Canis familiaris; experiment: Compound was evaluated for maximum reduction of ectopic beats after oral administration at a dose 15 mg/kg to dog.; assay type: functional, Canis lupus familiaris, Heart
[9] = test system: Canis familiaris; experiment: Compound was evaluated for onset of action after oral administration at a dose 15 mg/kg to dog.; assay type: functional, Canis lupus familiaris
[10] = test system: Canis familiaris; experiment: Compound was evaluated for duration of action after oral administration at a dose 15 mg/kg to dog.; assay type: functional, Canis lupus familiaris

SMILES | AR [1] | selectivity ratio [2] | minimal effective dose [3] [mg/kg] | ADI [4] | Duration [5] [min] | Onset of action [6] [min] | Reduction [7] [%] | Reduction [8] [%] | Onset of action [9] [min] | Duration [10] [min]
CC(C)N(CCC(CCN(C)C)(C(N)=O)c1ccc(F)cc1)C(C)C (configuration not stated) | 2.2 | 1.1 | 15 | 0.21 | – | – | – | – | – | –
CC(C)N(CCC(CCN(C(C)C)C(C)C)(C(N)=O)c1ccccc1F)C(C)C | 6.1 | 15 | 3 | 1.52 | 200 | 90 | 87 | – | – | –
Cc1ccc(C(CCN(C(C)C)C(C)C)(CCN(C(C)C)C(C)C)C(N)=O)cc1 | 5.3 | 1.9 | 2 | – | – | – | – | – | – | –
CC(C)N(CCC(CCN(C(C)C)C(C)C)(C(N)=O)c1cccc(Cl)c1)C(C)C | 6.9 | 6.7 | 1.5 | 1.42 | – | – | – | – | – | –
CC(C)N(CCC(CCCN1CC2CCC(CC2)C1)(C(N)=O)c1ccccc1Cl)C(C)C (configuration not stated) | 6.3 | 4 | 7 | 0.3 | – | – | – | – | – | –
CC(C)N(CCC(CCN1CCCCC1)(C(N)=O)c1ccc(Cl)cc1)C(C)C (configuration not stated) | 6.6 | 1 | 3.5 | 0.51 | – | – | – | – | – | –
CC(C)N(CCC(CCN(C(C)C)C(C)C)(C(N)=O)c1ccc(Cl)cc1Cl)C(C)C | 7.6 | 4 | 1.5 | 2.14 | – | – | – | – | – | –
CC(C)N(CCC(CCN(C(C)C)C(C)C)(C(N)=O)c1ccccc1Br)C(C)C | 6.1 | 8 | 1.5 | 2.16 | – | – | – | – | – | –
CC(C)N(CCC(CCN(C)C)(C(N)=O)c1ccc(C(C)(C)C)cc1)C(C)C (configuration not stated) | 4.9 | 1.3 | 5 | 0.76 | – | – | – | – | – | –
CC(C)N(CCC(CCN(C)C)(C(N)=O)c1ccccc1)C(C)C (configuration not stated) | 2.6 | > 7.5 | 12 | 0.4 | 200 | 131 | 100 | – | – | –
CC(C)N(CCC(CCN1CCCCC1)(C(N)=O)c1ccc(F)cc1)C(C)C (configuration not stated) | 4.4 | 1 | 8.3 | 0.58 | – | – | – | – | – | –
CC(C)N(CCC(CCN(C)C)(C(N)=O)c1ccccc1Cl)C(C)C (configuration not stated) | 2.7 | 4.7 | 7.5 | 0.31 | – | – | – | – | – | –
CC(C)N(CCC(CCN1C(C)CCCC1C)(C(N)=O)c1ccccc1F)C(C)C (configuration not stated) | 8.3 | 6.7 | 3.3 | 2.2 | – | – | – | – | – | –
CC(C)N(CCC(CCN1CCCCCC1)(C(N)=O)c1ccccc1)C(C)C (configuration not stated) | 6.8 | 8.7 | 3 | 0.68 | – | – | – | – | – | –
CC(C)N(CCC(CCn1cccc1)(C(N)=O)c1ccccc1)C(C)C (configuration not stated) | 2.3 | > 3.3 | 15 | 0.13 | – | – | – | – | – | –
CC(C)N(CCC(CCN1CCOCC1)(C(N)=O)c1ccccc1)C(C)C (configuration not stated) | 5.6 | 7.6 | 5 | – | 52 | 285 | 84 | – | – | –
CC(C)N(CCC(CCN1CCCCC1)(C(N)=O)c1ccc(C(C)(C)C)cc1)C(C)C (configuration not stated) | 7.8 | 2.9 | 2.5 | 0.82 | – | – | – | – | – | –
CC(C)N(CCC(CCN(C(C)C)C(C)C)(C(N)=O)c1ccc(F)cc1F)C(C)C | 7.7 | 4.7 | 4.5 | 0.69 | – | – | – | – | – | –
CC(C)N(CCC(CCN(C(C)C)C(C)C)(C(N)=O)c1ccc(F)cc1)C(C)C | 6.7 | 12 | 2 | 1.19 | 147 | 88 | 92 | – | – | –
Cc1ccccc1C(CCN(C(C)C)C(C)C)(CCN(C(C)C)C(C)C)C(N)=O | 6.6 | 6 | 1.5 | 2.57 | – | – | – | – | – | –
CC(C)N(CCC(CCN(C(C)C)C(C)C)(C(N)=O)c1ccc(Cl)c(Cl)c1)C(C)C | 5.8 | 4.6 | 2.5 | 0.63 | – | – | – | – | – | –
CC(C)N(CCC(CCn1cccc1)(C(N)=O)c1ccccc1F)C(C)C (configuration not stated) | 3.6 | 7.3 | 7.5 | 0.59 | – | – | – | – | – | –
CC(C)N(CCC(CCN(C(C)C)C(C)C)(C(N)=O)c1ccccc1Cl)C(C)C | 6.5 | 3.5 | 2.5 | 1.57 | – | – | – | – | – | –

SMILES | AR [1] | selectivity ratio [2] | minimal effective dose [3] [mg/kg] | ADI [4] | Duration [5] [min] | Onset of action [6] [min] | Reduction [7] [%] | Reduction [8] [%] | Onset of action [9] [min] | Duration [10] [min]
CC(C)N(CCC(CCCN(C)C)(C(N)=O)c1ccccc1F)C(C)C (configuration not stated) | 1.8 | > 4 | 12.5 | 0.12 | – | – | – | – | – | –
CC(C)N(CCC(CCCN(C)C)(C(N)=O)c1ccccc1)C(C)C (configuration not stated) | – | – | 20 | – | – | – | – | – | – | –
CC(C)N(CCC(CCN(C(C)C)C(C)C)(C(N)=O)c1ccc(Cl)cc1)C(C)C | 6.6 | 2.3 | 3 | 0.86 | >330 | 30 | 100 | – | – | –
CC(C)N(CCC(CCN(C(C)C)C(C)C)(C(N)=O)c1cccc(C(F)(F)F)c1)C(C)C | 6 | 2.4 | 3 | 1.5 | – | – | – | – | – | –
COc1ccc(C(CCN(C(C)C)C(C)C)(CCN(C(C)C)C(C)C)C(N)=O)cc1 | 6.5 | 3.1 | 4 | 1.33 | – | – | – | – | – | –
CC(C)N(CCC(CCN1CCCCC1)(C(N)=O)c1ccccc1Br)C(C)C (configuration not stated) | 7.2 | 13 | 1.5 | 1.2 | – | – | – | – | – | –
CC1CCCCN1CCC(CCN(C(C)C)C(C)C)(C(N)=O)c1ccccc1F (configuration not stated) | 4.6 | 3.2 | 7.5 | 0.6 | – | – | – | – | – | –
CC(C)c1ccc(C(CCN2CCCCC2)(CCN(C(C)C)C(C)C)C(N)=O)cc1 (configuration not stated) | 6.2 | 2 | 3 | 0.75 | – | – | – | – | – | –
CC(C)N(CCC(CCN1CCN2CCCC2C1)(C(N)=O)c1ccccc1)C(C)C (configuration not stated) | 2.7 | > 5 | 10 | – | – | – | – | – | – | –
C=C[C@H]1CN2CC[C@H]1C[C@@H]2[C@@H](O)c1ccnc2ccc(OC)cc12 [QUINIDINE] | 2.2 | – | 13.5 | 0.4 | 110 | 110 | 57 | – | – | –
CC(C)N(CCC(CCN1CCCCC1)(C(N)=O)c1cccc(Cl)c1)C(C)C (configuration not stated) | 4.4 | 3 | 2.3 | 0.7 | – | – | – | – | – | –
CC(C)N(CCC(CCN1CCCCC1)(C(N)=O)c1ccccc1)C(C)C (configuration not stated) | 6.1 | 8.2 | 5.5 | 0.45 | >300 | 169 | 97 | – | – | –
CC(C)N(CCC(CCN1CC2CCC1CC2)(C(N)=O)c1ccccc1)C(C)C (configuration not stated) | 6.7 | 4.6 | 3.5 | 1.38 | – | – | – | – | – | –
CC(C)N(CCC(CCN(C(C)C)C(C)C)(C(N)=O)c1cccc(F)c1)C(C)C | 6 | 2.4 | 3 | 0.66 | – | – | – | – | – | –
CC(C)N(CCC(CCCN1CCCCC1)(C(N)=O)c1ccccc1Cl)C(C)C (configuration not stated) | 4.6 | 5 | 3.5 | 1.55 | – | – | – | – | – | –
CCN(CC)CCC(CCN(C(C)C)C(C)C)(C(N)=O)c1ccccc1 (configuration not stated) | 4.6 | 5.5 | 7.5 | 0.94 | – | – | – | – | – | –
CC(C)N(CCC(CCN1CCCCCC1)(C(N)=O)c1ccccc1F)C(C)C (configuration not stated) | 6.9 | 7.5 | 3 | 0.78 | – | – | – | – | – | –
CC(C)N(CCC(CCN1CCCCC1)(C(N)=O)c1ccc(F)cc1F)C(C)C (configuration not stated) | 6 | > 4 | 6 | 0.42 | – | – | – | – | – | –
CC(C)N(CCC(CCCN1CCCCC1)(C(N)=O)c1ccccc1F)C(C)C (configuration not stated) | 4.2 | > 6 | 7.5 | 0.36 | – | – | – | – | – | –
CC(C)N(CCC(CCN(C)C1CCCCC1)(C(N)=O)c1ccccc1F)C(C)C (configuration not stated) | 6 | 12.7 | 1.5 | 0.98 | 150 | 203 | 67 | – | – | –
CC(C)N(CCC(CCN(C(C)C)C(C)C)(C(N)=O)c1c(Cl)cccc1Cl)C(C)C | 6.9 | 4.6 | 2.7 | 1.2 | – | – | – | – | – | –
CC(C)N(CCC(CCN(C(C)C)C(C)C)(C(N)=O)c1ccccc1)C(C)C | 6.5 | 3.4 | 5.5 | 1.31 | 200 | 200 | 89 | – | – | –
CC(C)N(CCC(CCN(C)C1CCCCC1)(C(N)=O)c1ccccc1)C(C)C (configuration not stated) | 7.1 | 4.1 | 2.7 | 1.36 | – | – | – | 69 | 300 | 30
